The series in a line: Human HepG2 cell viability assay in 384 well format. It counts as toxicity, cell-based. The arrangement: dose 125 nL, time 70.5 hour; concentration not given beside the values. Particulars: HepG2 cells, read-out: Inhibition.
For `c1ccc(-c2cnc(CNC3CCc4ncnn4C3)o2)cc1` (centres undefined), the cytotoxicity at 70.5 h came to 0.0931%.

In the case of `O=C(CN1CCC2(CCCCC2)C1)NCC(F)(F)F`, the cytotoxicity at 70.5 h was -9.38%.

As to `Cc1nnc(NC(=O)CN(C)CC2CCCN2c2cccnn2)s1` (centres undefined), the cytotoxicity at 70.5 h was found to be 18.3%.

For `CN(Cc1cccc(C(N)=O)c1)c1ncc(C#N)cc1Cl`, the cytotoxicity at 70.5 h is -9.21%.

`O=C1CSC(C(F)(F)F)c2c(O)nn(C3CCCC3)c2N1` (centres undefined): the cytotoxicity at 70.5 h is -22.6%.

For `CCc1csc(CNC(=O)C(CC)n2cccn2)n1` (centres undefined), the cytotoxicity at 70.5 h is -2.46%.

For `COC[C@H]1CN(CC2CC2)C(=O)[C@@H]2CCN(Cc3ccoc3)CC[C@H]12`, the cytotoxicity at 70.5 h is -4.84%.

`Cc1cc(C(=O)N2CCn3cc(CN4CCCCC4)nc3C2)no1`: the cytotoxicity at 70.5 h was -9.93%.

For `Cc1nc(N2CCOCC2)nc2c1CCN(Cc1ccsc1)CC2`, the cytotoxicity at 70.5 h was determined as 1.35%.

Regarding `CC(c1cncs1)N(C)Cc1ccc(CCC(C)(C)O)cc1` (centres undefined), the cytotoxicity at 70.5 h was -5.33%.

For the molecule `O=C(CCN1C(=O)CCC1=O)Nc1ccc(Oc2ccc(Cl)cc2)nc1`, the cytotoxicity at 70.5 h is -10.7%.

Take `O=C(NC[C@H]1OC[C@@H](N(CC2CC2)CC2CC2)[C@@H]1O)Nc1ccccc1`: the cytotoxicity at 70.5 h is -8.13%.

On to `Cc1nc(CN2CCCC(c3cc(C(N)=O)[nH]n3)C2)oc1C` (centres undefined), for which the cytotoxicity at 70.5 h was -1.85%.

For the molecule `Cc1ccc(S(=O)(=O)Nc2ccc(N3CCOCC3)cn2)cc1`, the cytotoxicity at 70.5 h was -3.69%.

As to `O=C(Cn1ccc2sccc2c1=O)NCCC1=CCCCC1`, the cytotoxicity at 70.5 h is -8.78%.

Turning to `Cc1nccc(NCc2cncc3c2CCN(CCN(C)C)C3)n1`, the cytotoxicity at 70.5 h was determined as 3.96%.

Regarding `CN(Cc1coc(-c2ccccc2)n1)CC1CCCN1c1cccnn1` (centres undefined), the cytotoxicity at 70.5 h is 4.57%.

In the case of `Cc1cc(CN2C[C@@H]3CN(C(=O)c4ccco4)CCO[C@@H]3C2)no1`, the cytotoxicity at 70.5 h is -5.36%.

Turning to `COCCCC(=O)NCc1cccc(NC(N)=O)c1`, the cytotoxicity at 70.5 h was -3.29%.

For `COc1cccc(CCNCc2c(C)nn(C)c2N(C)C)c1`, the cytotoxicity at 70.5 h was -4.91%.

Take `COC(=O)C(C)NC(=O)CSCc1nc(O)c2cc(C(C)C)sc2n1` (centres undefined): the cytotoxicity at 70.5 h was 6.75%.

For `CC(C)NC(=O)N1CCN(c2ccc(Cl)nn2)C(=O)C1`, the cytotoxicity at 70.5 h was -4.88%.

As for `CCN1CCNC(=O)C12CCN(S(=O)(=O)c1ccccc1)CC2`, the cytotoxicity at 70.5 h was -6.26%.

As to `COc1ccnc(N2CCN(Cc3ncc(C(C)(C)C)o3)CC2)n1`, the cytotoxicity at 70.5 h amounted to 6.11%.

Take `CSc1nsc(NC(=O)c2cc(C3CC3)nn2C)n1`: the cytotoxicity at 70.5 h is -6.09%.

Consider `Cc1cc(C(=O)N2CCCC(n3ccnc3C)C2)c(C)s1` (centres undefined), for which the cytotoxicity at 70.5 h is -11.2%.

In the case of `O=C(CCc1ccccc1)NCC1CCN(Cc2ccsc2)CC1`, the cytotoxicity at 70.5 h was determined as 5.29%.

As to `COc1ccc(F)cc1Cn1nc(C(N)=O)ccc1=O`, the cytotoxicity at 70.5 h worked out at 6.09%.

For `CCOc1ccnc(N2CCN(C(=O)c3cc(Cl)c[nH]3)CC2)n1`, the cytotoxicity at 70.5 h amounted to 25.8%.

In the case of `CCCn1ncnc1C(C)NC(=O)C1CCN(CC(N)=O)CC1` (centres undefined), the cytotoxicity at 70.5 h was -6.92%.

On to `O=C(NCCc1ccncc1)[C@H]1CC[C@@H]2[C@@H](CCN2CC2CC2)O1`, for which the cytotoxicity at 70.5 h is -10.8%.

For the molecule `CC1(C(=O)N2CCN(C3CCCC3)CC2)CNCCO1` (centres undefined), the cytotoxicity at 70.5 h was -7.45%.

For the molecule `Cc1cc(C)n(C2CCCN(C(=O)c3c(C)noc3C)C2)n1` (centres undefined), the cytotoxicity at 70.5 h was -7.4%.

For `CC(C)c1nn(C)cc1CNCc1cccc(N(C)C)c1`, the cytotoxicity at 70.5 h was found to be 6.7%.

As for `CN(C)C(=O)c1cccnc1-c1ccc2c(c1)OCCO2`, the cytotoxicity at 70.5 h is -18.6%.

As for `CS(=O)(=O)NCC1CCCN(C(=O)c2ccc(Cl)o2)C1` (centres undefined), the cytotoxicity at 70.5 h is -8.13%.

For `Cc1nc(C(NC(=O)C2CCCC2)c2ccccc2F)no1` (centres undefined), the cytotoxicity at 70.5 h was -9.04%.

For `CS(=O)(=O)N1CCc2sc(C(=O)NCCc3ccccn3)cc21`, the cytotoxicity at 70.5 h is -10.9%.

As for `CC1CCN(c2ncc3c(n2)CN(Cc2cccc(F)c2)C3=O)CC1`, the cytotoxicity at 70.5 h is -0.149%.

In the case of `COCc1ncn2c1CN(C(=O)c1ccc3ccccc3n1)CC2`, the cytotoxicity at 70.5 h amounted to 6.36%.

Turning to `Cc1ccc(Cl)cc1C(=O)N1CCC2(CC1)c1ccccc1[C@@H](N)[C@@H]2O`, the cytotoxicity at 70.5 h was found to be 15.9%.

Regarding `Cc1cc(OCC(=O)N2CCCC(c3nccs3)C2)no1` (centres undefined), the cytotoxicity at 70.5 h was -2.96%.

Consider `Cc1cc(S(=O)(=O)N2CC[C@@H](O)C2)c(Cl)cc1F`, for which the cytotoxicity at 70.5 h was -6.21%.

Take `Cn1cc(CN2CCCC23CCN(Cc2nccn2C)CC3)cn1`: the cytotoxicity at 70.5 h worked out at 3.37%.

`CC(C1CC1)N(C)C(=O)c1ccc(-n2ncc(C#N)c2N)cc1` (centres undefined): the cytotoxicity at 70.5 h is -6.01%.

For the molecule `CN(C)CC(=O)N1CCC2(CC1)COc1ccccc1S(=O)(=O)N(C)C2`, the cytotoxicity at 70.5 h came out at 0.316%.

As to `CN(C)Cc1cccc(-c2cccnc2C(=O)NCc2cn(C)cn2)c1`, the cytotoxicity at 70.5 h was -1.14%.

Consider `COC1CCN(c2ccc(F)cc2CN(C)C(C)C(N)=O)CC1` (centres undefined), for which the cytotoxicity at 70.5 h was -1.51%.

As for `Cn1ncc(N2CCN(Cc3ccc(S(C)(=O)=O)cc3)CC2)cc1=O`, the cytotoxicity at 70.5 h is -5.42%.

Consider `CS(=O)(=O)NCCNC(=O)c1ccc(OCc2ccccc2)nc1`, for which the cytotoxicity at 70.5 h is -9.1%.

For the molecule `CSc1nnc(CC2CCN(C(=O)CCc3cccnc3)CC2)n1C`, the cytotoxicity at 70.5 h is -8.7%.

`CN1CCOC(CNCc2coc(-c3ccccc3Cl)n2)C1` (centres undefined): the cytotoxicity at 70.5 h is 1.39%.

Consider `CCc1cc(N(C)Cc2ccncn2)n2nccc2n1`, for which the cytotoxicity at 70.5 h came out at 13.1%.

As for `COCCN(C)C[C@@H]1CN(C(=O)c2ccc(C)c(Cl)c2)C[C@@H]1CO`, the cytotoxicity at 70.5 h was 1.13%.

On to `OCC(O)CSCc1ccc(F)cc1Cl` (centres undefined), for which the cytotoxicity at 70.5 h was found to be 19.6%.

Regarding `COCc1ccc(C(=O)N2CCCN(c3ccc(F)cc3)CC2)s1`, the cytotoxicity at 70.5 h was found to be 5.91%.

As to `CN(Cc1ccc([S+](C)[O-])cc1)c1cncc(Br)c1` (centres undefined), the cytotoxicity at 70.5 h is -23.7%.

Turning to `CC(=O)N1CCCCC1c1ncnn1-c1ccc2nc(C)sc2c1` (centres undefined), the cytotoxicity at 70.5 h is -4.05%.

With `COc1ccc2c(c1)OCC(CNC(=O)c1ccncc1)C2` (centres undefined), the cytotoxicity at 70.5 h was 13.9%.

In the case of `Cc1ccn(CCC(=O)N2CCOC(c3nc(-c4cccs4)no3)C2)n1` (centres undefined), the cytotoxicity at 70.5 h is -2.76%.

Take `COc1cc(C(=O)Nc2nc(C)no2)ccc1C`: the cytotoxicity at 70.5 h amounted to 36.1%.

`Cc1nnc(CN(C)CC2CCCN2c2cccnn2)o1` (centres undefined): the cytotoxicity at 70.5 h is -3.53%.

Regarding `O=c1oc(-c2ccc(F)cc2)nn1CCc1ccccn1`, the cytotoxicity at 70.5 h was 2.48%.

As for `CCC(C)N(CC)C(=O)c1ccc2[nH]nnc2c1` (centres undefined), the cytotoxicity at 70.5 h is -6.36%.

On to `CCc1cnc(CN(C(C)=O)C2CCN(CCc3ccncc3)C2)o1` (centres undefined), for which the cytotoxicity at 70.5 h is -1.81%.

On to `Cc1cc(C)c(Cn2cncn2)cc1CN1CC[C@H]2CC[C@@H](C1)N2`, for which the cytotoxicity at 70.5 h came to 2.8%.

Take `CCC(NC(=O)c1cccc2cc[nH]c12)C(=O)N1CCOCC1` (centres undefined): the cytotoxicity at 70.5 h was -11.2%.

With `CCO[C@@H]1CCN(C(=O)c2cnc(C)cn2)[C@@H]1Cc1cnn(C)c1`, the cytotoxicity at 70.5 h was -11.6%.

Take `CCS(=O)(=O)N1CCc2nnc(CN(C)C(C)C)n2CC1`: the cytotoxicity at 70.5 h came to 19.5%.

As to `CCn1cc(NC(=O)NCc2ccc3c(c2)OCCO3)cn1`, the cytotoxicity at 70.5 h was -13%.

As to `COc1cccc(CN2CCC(Cc3cnc(CN(C)C)cn3)CC2)c1`, the cytotoxicity at 70.5 h came out at 22.5%.

As for `Cc1cc(C2CCCN2Cc2nc3c(cnn3C)c(=O)[nH]2)on1` (centres undefined), the cytotoxicity at 70.5 h was -8.83%.

As for `COc1ccccc1OCCC(=O)N1CCCC1Cn1cc(C)cn1` (centres undefined), the cytotoxicity at 70.5 h is -6.74%.

As for `CC(C)OCCOCc1cccc(NC(=O)NCc2ccncc2)c1`, the cytotoxicity at 70.5 h is 2.35%.

Regarding `O=C(Cc1cnccn1)N1C[C@H]2CC[C@@H]1CN(Cc1cscn1)C2`, the cytotoxicity at 70.5 h was -12.8%.

Turning to `CCOCCN1CCN(CCCc2nnnn2-c2ccccc2)CC1`, the cytotoxicity at 70.5 h is -5.57%.

Turning to `CN(C)c1ncccc1CNC(=O)N1CCCC1CN1CCCC1` (centres undefined), the cytotoxicity at 70.5 h came out at 24.9%.

Take `COCC(=O)N1CCC(=O)N(C2CCCC2)Cc2cc(F)ccc21`: the cytotoxicity at 70.5 h is -5.37%.

`CC(C)n1[nH]c(=O)c2c1NC(=O)CSC2c1cccc(OCC(N)=O)c1` (centres undefined): the cytotoxicity at 70.5 h was -11.3%.

For the molecule `COCCNC(=O)C(C)n1nc(-c2ccc(C)o2)cc(N)c1=O` (centres undefined), the cytotoxicity at 70.5 h was determined as 39.4%.

Consider `Cn1nccc1NC(=O)CN1CCc2sccc2C1`, for which the cytotoxicity at 70.5 h is -11.2%.

On to `Cc1c(C(C)N)cnn1-c1cccc2ccccc12` (centres undefined), for which the cytotoxicity at 70.5 h was -5.48%.

Regarding `Cc1nn(C)c(Cl)c1C1CCCN1C(=O)c1ccnc(N(C)C)c1` (centres undefined), the cytotoxicity at 70.5 h is -2.23%.

Turning to `CN(C)C(=O)CN1CCCC(Cc2ccc(N3CCCC3)nn2)C1` (centres undefined), the cytotoxicity at 70.5 h was -9.12%.

In the case of `CSc1ccccc1NC(=O)C1CSc2ncc(C)c(=O)n2C1` (centres undefined), the cytotoxicity at 70.5 h was -10.7%.

Consider `c1coc(CN2CCc3nnc(COc4cncnc4)n3CC2)c1`, for which the cytotoxicity at 70.5 h was -13.1%.

With `COc1ccc(C(=O)NS(=O)(=O)c2cncc(Br)c2)c(OC)c1`, the cytotoxicity at 70.5 h was -7.26%.

`Cc1ccc(OCc2nnc(SCC3CCCN(C)C3)o2)cc1` (centres undefined): the cytotoxicity at 70.5 h is -8.56%.

For `NCC1CN(c2nc(-c3ccccc3)nc3c2CCNCC3)CCO1` (centres undefined), the cytotoxicity at 70.5 h stood at 3.02%.

For the molecule `c1csc(CNCC2COCc3c(-c4ccsc4)nnn3C2)n1` (centres undefined), the cytotoxicity at 70.5 h is -7.15%.

`Cc1noc(C2(NC(=O)c3cccnc3O)CCCCC2)n1`: the cytotoxicity at 70.5 h worked out at 2.75%.

On to `Cc1nn(C)c2c(NCCCn3cccn3)nc(C(C)C)nc12`, for which the cytotoxicity at 70.5 h came out at 16.2%.

In the case of `CCNc1ncc(C2CC(=O)Nc3c2cnn3Cc2ccncc2)cn1` (centres undefined), the cytotoxicity at 70.5 h was determined as 5.87%.

As to `COC(=O)c1cc(NC2CCN(CC(F)(F)F)C2=O)ccc1C` (centres undefined), the cytotoxicity at 70.5 h is -1.18%.

Take `CCCn1c(C)c(CC(=O)NC(C)(C)CO)c2c1CC(C)(C)CC2=O`: the cytotoxicity at 70.5 h was determined as 0.294%.

Take `CC(C)C(C(=O)N1CCCN(Cc2cnn(C)c2)CC1)n1cncn1` (centres undefined): the cytotoxicity at 70.5 h is -7.59%.

Consider `NC[C@H]1CC[C@H](C(NC(=O)c2cccc(F)c2)c2ccccn2)CC1` (some centres undefined), for which the cytotoxicity at 70.5 h stood at 41%.

For `Cc1cnc(CNC(=O)c2cc3c(s2)CCN3S(C)(=O)=O)cn1`, the cytotoxicity at 70.5 h is -0.66%.

As for `CCc1nsc(N2CCOC3(CCCC3)C2)n1`, the cytotoxicity at 70.5 h is -3.55%.

(Values after ChEMBL document CHEMBL3507680, “University of Dundee, Gates Library screen for HepG2 cell viability”.)
